Like-named read-outs stand apart in the source and are kept apart here.
What was measured:
Dopamine (D-2) receptor = target: T1, Dopamine (D-2) receptor (Cavia porcellus, UniProt H0VE83); test: Dopamine Receptor Binding; format: guinea pig, striatum membranes
T1 construct: Membranes were prepared from guinea pig striatum; from tissue; host or cells: guinea pig striatum membranes

Sigma receptor = target: T2, Sigma receptor (Cavia porcellus, UniProt Q60492); test: Sigma Receptor Binding Assay; format: guinea pig (male Hartley), brain membranes
T2 construct: Brain membranes were prepared by the method of Tam; from tissue; host or cells: guinea pig whole brain membranes

[1] = system: isolation-induced aggression in mice; test: Isolation-Induced Aggression in Mice; format: in vivo, mouse (male Balb/c); conditions: for ED50: Mus musculus, po, 0.25 h, read-out: Inhibition of Isolation-induced Aggression (ED50 class); for inhibiting the isolation-induced aggressive behavior: statement on Table II
[2] = system: mescaline-induced scratching in mice; test: Mescaline-Induced Scratching in Mice; format: in vivo, mouse (male CF1); conditions: Mus musculus, 0.75 h, mescaline 25 mg/kg orally, 10 mg/kg po, read-out: Inhibition of Mescaline Scratch (ED50 class)
Description: This is a modification of the procedure of Fellows and Cook (in Psychotropic Drugs, ed. by S. Garrattini and V. Ghatti, pp. 397-404, Elsevier, Amsterdam, 1957) and Deegan and Cook (J. Pharmacol. Exp. Ther. 122: 17A, 1958). Male CF1 Mice (Charles River) were injected orally with test compound and placed singly into square (13 cm) Plexiglass observation chambers. Twenty minutes later mice were injected orally with mescaline (25 mg/kg). Beginning 25 minutes after treatment with mescaline (45 minutes after treatment with test compound), scratching episodes were counted during a 5 minute observation period. A scratching episode is defined as a brief (1-2 sec) burst of scratching either the head or the ear with the hind foot.

in vivo = conditions: rat, po
[3] = system: PCP-induced turning behavior in rats; test: PCP-Induced Turning Behavior in Rats; format: in vivo, rat (male Sprague-Dawley); conditions: for ED50: Rattus norvegicus, po, 6-OHDA lesioned rats, drug p.o. 20 min before, PCP 1.5 mg/kg s.c., read-out: Inhibition of PCP-induced Turning (ED50 class)
Description: Male Sprague-Dawley rats (CD/CR, Charles River), weighing 190-290 g, were used for surgery. In order to spare […] neurons, rats were injected with 25 mg/kg imipramine intraperitoneal (i.p.) 30 min before surgery. The rats were anesthetized with a 1:1.2 ratio mixture of Xylazine:Ketamine given 0.1 mL/100 g body weight intramuscular (i.m.). A Ringers-Wydaze (100:0.01) solution was given to prevent dehydration. Dopamine was depleted in the right striatum by injecting the neurotoxin 6-hydroxydopamine (6-OHDA) into the substantia nigra of the right cerebral hemisphere. Five mg of 6-OHDA was dissolved in 5 mL of a 0.04% ascorbic acid solution which had been deoxygenated with nitrogen. Five μL of the 6-OHDA solution was injected into the substantia nigra through a 26 gauge needle over a five min period. Stereotaxic injection coordinates were -2.5 mm posterior to bregma, -2.1 mm right of the midsagittal suture, and -8.6 mm below the skull surface with the incisor bar set at +5.0 mm. Following surgery they were given 10 days to recover while housed four per cage (45.0 L×20.0 H×26.0 W) with ALPHA-dri bedding and ad lib access to Pro-Lab rodent chow and deionized water. […] At all times they were housed in the animal care facility under a 12--12 hour light/dark cycle (light on at 6:00 h, light off at 18:00 h).
Rotation rate and direction were determined with Coulbourn Instruments Rotometry Monitors. Clockwise and counter clockwise rotations were recorded at 30 and 60 min intervals. The rats were examined for correct lesion location by testing for rotational activity induced by subcutaneous (s.c.) injections of 3.0 mg/kg D-amphetamine SO4, and 2.0 mg/kg PCP HCl, respectively. These drugs were administered in the following sequence: Amphetamine was given 30 sec before testing. […]
The data was analyzed with an analysis of variance statistical test, and individual comparisons of each dose of test drug to control were made with Dunnett's multiple range test. The ED50 was calculated with a Litchfield and Wilcoxon test using percent of control values.

catalepsy in rats [4] = test: Induction of Catalepsy; conditions: statement on Table III
catalepsy in rats [5] = conditions: rat, in vivo
[6] = 0.15 nM [3H]spiperone, guinea pig striatum, pH 7.7, 15 min 37° C., read-out: Receptor Binding Affinity Dopamine (D-2) (Ki class)
[7] = 1 nM (+)-[3H]SKF 10,047, guinea pig brain membranes, pH 7.4, 45 min room temperature, read-out: Receptor Binding Affinity Sigma (Ki class)
[8] = mice, p.o., 15 min after dosing

T1 sequence (H0VE83 1-446): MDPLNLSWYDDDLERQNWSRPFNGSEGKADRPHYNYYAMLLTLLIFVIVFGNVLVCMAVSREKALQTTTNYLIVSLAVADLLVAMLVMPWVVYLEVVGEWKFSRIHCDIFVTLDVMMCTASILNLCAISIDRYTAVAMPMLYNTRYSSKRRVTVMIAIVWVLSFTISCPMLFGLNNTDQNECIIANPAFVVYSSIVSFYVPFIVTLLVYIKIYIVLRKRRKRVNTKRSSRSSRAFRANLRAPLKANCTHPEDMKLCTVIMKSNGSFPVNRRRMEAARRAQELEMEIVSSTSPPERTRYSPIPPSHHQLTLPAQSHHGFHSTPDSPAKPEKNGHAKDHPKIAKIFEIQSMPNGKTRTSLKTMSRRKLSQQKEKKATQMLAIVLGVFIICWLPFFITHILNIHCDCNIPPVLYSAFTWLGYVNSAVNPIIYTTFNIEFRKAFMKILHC
T2 sequence (Q60492 whole entry): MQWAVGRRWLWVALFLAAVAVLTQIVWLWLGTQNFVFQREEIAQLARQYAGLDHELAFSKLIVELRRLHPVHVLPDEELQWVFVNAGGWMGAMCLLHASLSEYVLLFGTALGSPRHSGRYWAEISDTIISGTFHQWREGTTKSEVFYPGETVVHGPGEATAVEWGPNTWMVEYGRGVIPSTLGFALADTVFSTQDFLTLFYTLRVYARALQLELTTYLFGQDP

Row | Ki (Dopamine (D-2) receptor; [6]) | Ki (Sigma receptor; [7]) | Compound | ED50 [1, 8] | other results
1 | > 500 nM | 1 to 30 nM | O=C1c2ccccc2C(=O)N1CCC1CCN(CCc2ccccc2)CC1 [Example 39] | 21 to 70 mg/kg | 
2 | > 500 nM | 1 to 30 nM | CC1CC[C@@H]2C(=O)N(CC3CCN(CCc4ccccc4)CC3)C(=O)[C@@H]2C1 (stereo partly drawn) [Example 23] | 21 to 70 mg/kg | 
3 |  | 1 to 30 nM | O=C1C2=C(CCCC2)C(c2cccs2)N1CC1CCN(CCc2ccccc2)CC1 (stereo not drawn) [Example 142] |  | ED50 [2]: < 11 mg/kg
4 |  | 31 to 100 nM | O=C1C2=C(CCCC2)C(c2ccccc2)N1CC1CCN(CCc2ccccc2)CC1 (stereo not drawn) [Example 134] |  | ED50 [2]: < 11 mg/kg
5 | > 500 nM | 1 to 30 nM | O=C1c2ccccc2C(=O)N1CC1CCN(Cc2ccccc2)CC1 [Example 34] | 11 to 20 mg/kg | 
6 |  |  | CCCC1C2=C(CCCC2)C(=O)N1CC1CCN(CCc2ccccc2)CC1 (stereo not drawn) [Example 144] | < 11 mg/kg | ED50 [2]: < 11 mg/kg
7 | > 500 nM | 1 to 30 nM | O=C1[C@H]2CCCC[C@H]2C(=O)N1CC1CCN(CC2CCCCC2)CC1 [Example 15] |  | inhibiting the isolation-induced aggressive behavior [1]: potent activities
8 |  | 1 to 30 nM | CCCCCCC1C2=C(CCCC2)C(=O)N1CC1CCN(CCc2ccccc2)CC1 (stereo not drawn) [Example 138] | < 11 mg/kg | ED50 [2]: < 11 mg/kg
9 |  |  | O=C(CCCN1CCC(O)(c2ccc(Cl)cc2)CC1)c1ccc(F)cc1 [haloperidol, reference compound] |  | ED50 (in vivo): < 11 mg/kg; ED50 [3]: < 11 mg/kg; inhibiting PCP-induced turning behavior ([3]; statement on Table III, rats): potent activity; producing catalepsy (catalepsy in rats [4]): very potent in producing catalepsy; ED50 [1]: < 11 mg/kg; inhibiting the isolation-induced aggressive behavior [1]: potent activities
10 |  | 31 to 100 nM | O=C1C2=C(CCCC2)C(c2ccc(F)cc2)N1CC1CCN(CCc2ccccc2)CC1 (stereo not drawn) [Example 136] | < 11 mg/kg | ED50 [2]: < 11 mg/kg
11 |  |  | CC1C2=C(CCCC2)C(=O)N1CC1CCN(CCc2ccc(F)cc2)CC1 (stereo not drawn) [Example 137] | < 11 mg/kg | ED50 [2]: < 11 mg/kg
12 | > 500 nM | 1 to 30 nM | O=C1[C@H]2CCCC[C@H]2C(=O)N1CC1CCN(CCc2ccccc2)CC1 [Example 3, 2-[1-(2-Phenylethyl)-4-piperidinylmethyl]-cis-3a,4,5,6,7,7a-hexahydro-1H-isoindole-1,3(2H)-dione] | 11 to 20 mg/kg | producing catalepsy (catalepsy in rats [5]): does not produce catalepsy; ED50 (in vivo): > 70 mg/kg; ED50 [3]: 21 to 70 mg/kg
13 |  |  | CCCCC1C2=C(CCCC2)C(=O)N1CC1CCN(CCc2ccccc2)CC1 (stereo not drawn) [Example 135] | < 11 mg/kg | ED50 [2]: < 11 mg/kg
14 |  | 1 to 30 nM | CC(C)CC1C2=C(CCCC2)C(=O)N1CC1CCN(CCc2ccccc2)CC1 (stereo not drawn) [Example 139] | < 11 mg/kg | ED50 [2]: < 11 mg/kg
15 |  | 1 to 30 nM | O=C1C2=C(CCCC2)C(c2ccco2)N1CC1CCN(CCc2ccccc2)CC1 (stereo not drawn) [Example 141] |  | ED50 [2]: < 11 mg/kg
16 |  | 31 to 100 nM | CCC(C)C1C2=C(CCCC2)C(=O)N1CC1CCN(CCc2ccccc2)CC1 (stereo not drawn) [Example 140] |  | ED50 [2]: < 11 mg/kg
17 | > 500 nM | 31 to 100 nM | O=C1C2=C(CCCC2)CN1CC1CCN(CCc2ccccc2)CC1 [Example 6, 2,3,4,5,6,7-hexahydro-2-[[1-(2-phenylethyl)-4-piperidinyl]methyl]-1H-isoindol-1-one] | 21 to 70 mg/kg | inhibiting the isolation-induced aggressive behavior [1]: potent activities
18 | > 500 nM | 1 to 30 nM | O=C1c2ccccc2C(=O)N1CC1CCN(Cc2ccc(F)cc2)CC1 [Example 36] |  | 

Row | Ki (Dopamine (D-2) receptor; [6]) | Ki (Sigma receptor; [7]) | Compound | ED50 [1, 8] | other results
19 | 101 to 500 nM | 101 to 500 nM | CCCC1C2c3ccccc3C=CC2C(=O)N1CCC1CCN(CCc2ccccc2)CC1 (stereo not drawn) [Example 86] |  | 
20 | 101 to 500 nM | 1 to 30 nM | O=C1c2cccc3cccc(c23)C(=O)N1CCC1CCN(CCc2ccccc2)CC1 [Example 9] |  | 
21 | > 500 nM | 1 to 30 nM | O=C1c2ccccc2C(=O)N1CCC1=CCN(CCc2ccccc2)CC1 [Example 115] |  | 
22 | > 500 nM | 101 to 500 nM | O=C1C2C(c3ccccc3)CCC(c3ccccc3)C2C(=O)N1CC1CCN(CCc2ccccc2)CC1 (stereo not drawn) [Example 68] |  | 
23 | > 500 nM | 1 to 30 nM | O=C1[C@H]2CCCC[C@H]2C(=O)N1CC1CCN(CCC2CCCCC2)CC1 [Example 17] |  | inhibiting the isolation-induced aggressive behavior [1]: potent activities
24 | > 500 nM | 101 to 500 nM | O=C1c2ccccc2C(O)N1CC1CCN(CCc2ccccc2)CC1 (stereo not drawn) [Example 7, 2,3-Dihydro-3-hydroxy-2-[[1-(2-phenylethyl]-4-piperidinyl]methyl]-1H-isoindol-1-one] |  | 
25 | > 500 nM | 1 to 30 nM | O=C1C2C3CCCC(CC3)C2C(=O)N1CC1CCN(CCc2ccccc2)CC1 (stereo not drawn) [Example 61] |  | 
26 |  |  | COc1cccc(C2(CN3C(=O)C4CCCCC4C3=O)CCN(CCc3ccccc3)CC2)c1 (stereo not drawn) [Example 125] |  | Ki (Dopamine (D-2) receptor): > 500 nM; Ki (Sigma receptor): 31 to 100 nM
27 | > 500 nM | 1 to 30 nM | O=C1[C@H]2CCCC[C@H]2C(=O)N1CC1CCN(Cc2ccc(F)cc2)CC1 [Example 20] |  | 
28 | > 500 nM | 1 to 30 nM | O=C1C2C3CC(c4ccccc43)C2C(=O)N1CC1CCN(CCc2ccccc2)CC1 (stereo not drawn) [Example 57] |  | 
29 | > 500 nM | > 500 nM | O=C1C2CC(O)C(O)CC2C(=O)N1CC1CCN(CCc2ccccc2)CC1 (stereo not drawn) [Example 63] |  | 
30 | > 500 nM | 31 to 100 nM | O=C1C2C3C=CC(C4CCC34)C2C(=O)N1CC1(O)CCN(CCc2ccccc2)CC1 (stereo not drawn) [Example 77] |  | 
31 | > 500 nM | 1 to 30 nM | O=C1c2ccccc2C(=O)N1CC1CCCN(Cc2ccccc2)C1 (stereo not drawn) [Example 47] |  | 
32 | > 500 nM | 1 to 30 nM | O=C1[C@H]2CCCC[C@H]2C(=O)N1CCCC1=CCN(CCc2ccccc2)CC1 [Example 121] |  | 
33 |  |  | Cc1ccc(C2C3=C(CCCC3)C(=O)N2CC2CCN(CCc3ccccc3)CC2)cc1 (stereo not drawn) [Example 143] | < 11 mg/kg | ED50 [2]: < 11 mg/kg
34 | > 500 nM | 31 to 100 nM | O=C1[C@H]2CCCC[C@H]2C(=O)N1CC1CCN(Cc2cccc(C(F)(F)F)c2)CC1 [Example 18] |  | 
35 | > 500 nM | 31 to 100 nM | O=C1[C@H]2CC=CC[C@H]2C(=O)N1CC1CCN(CCc2ccccc2)CC1 [Example 1, 2-[1-(2-Phenylethyl)-4-piperidinylmethyl]-cis-3a; 4,7,7a-tetrahydro-1H-isoindole-1,3(2H)-dione] |  | 
36 | > 500 nM | 1 to 30 nM | O=C1C2=C(CCCC2)C(=O)N1CC1CCN(CCc2ccccc2)CC1 [Example 56] |  | 

Row | Compound | Ki (Dopamine (D-2) receptor; [6]) | Ki (Sigma receptor; [7]) | ED50 [1, 8] | other results
37 | O=C1[C@H]2CCCC[C@H]2C(=O)N1CC1(c2cccc3ccccc23)CCN(CCc2ccccc2)CC1 [Example 127] | > 500 nM |  |  | Ki (Sigma receptor): 31 to 100 nM
38 | O=C1[C@H]2CCCC[C@H]2C(=O)N1CC1(c2csc3ccccc23)CCN(CCc2ccccc2)CC1 [Example 129] | 101 to 500 nM |  |  | Ki (Sigma receptor): 1 to 30 nM
39 | O=C1C2CCCCC2C(=O)N1CC1(c2cccc(C(F)(F)F)c2)CCN(CCc2ccccc2)CC1 (stereo not drawn) [Example 126] | > 500 nM |  |  | Ki (Sigma receptor): 1 to 30 nM

From patent US5480892A, “(N-phthalimidoalkyl)piperidines” (The Du Pont Merck Pharmaceutical Company, priority 1994, dated 1996)
